Several values for one entry are separate records, joined by “and”; a condition that tells them apart may be missing. Equal values may be shown once.

This is an account of results in the supplement of paper PMC4862054.

Common to all, as to experiment: normalised viability (% of control), CellTiter-Blue; higher = more viable cells (about 100 = DMSO control)
Conditions in all cases: incubation time: 72 h

The test system of assay [1] is CAL-51. The protocol: (§1)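 DSRT, CellTiter-Blue viability, 72 h incubation. Signal is normalised to DMSO and benzethonium chloride controls. Value is the normalised response at dose 8.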
The subject of assay [2] is CAL-148. The protocol:
as §1

Assay [3] relates to HDQ-P1. The protocol:
as §1

Assay [4] relates to CAL-85-1. The protocol: as §1
Assay [5] concerns DU-4475. The protocol: as §1
Assay [6] relates to MDA-MB-453. The protocol:
as §1

For assay [7], the system named is CAL-51. The protocol:
(§2)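 DSRT, CellTiter-Blue viability, 72 h incubation. Signal is normalised to DMSO and benzethonium chloride controls. Value is the normalised response at dose 6.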
The source holds these as a separate data set.

In assay [8] the test system is CAL-148. The protocol:
as §2
The source holds these as a separate data set.

For assay [9], the system named is HDQ-P1. The protocol: as §2
The source holds these as a separate data set.

For assay [10], the system named is CAL-85-1. The protocol:
as §2
The source holds these as a separate data set.

For assay [11], the system named is DU-4475. The protocol:
as §2
This is another data set of the same source.

The test system of assay [12] is MDA-MB-453. The protocol:
as §2
This is another data set of the same source.

In the case of `Cc1cccc(-c2nn3c(c2-c2ccnc4ccc(C(N)=O)cc24)CCC3)n1` (300 nM), the normalised viability in assay [1] was determined as 103%; in assay [2], 110%; in [3] it was 125%; in assay [4] it was 108%; in assay [5], 102%; in [6], 115%.
With `Cn1cc(CNCC2CCN(c3ncc(C(=O)NO)cn3)CC2)c2ccccc21` (300 nM), the normalised viability in assay [1] was found to be 7.57%; in [2] it was 1.57%; in assay [3], 18.8%; in [4], 8.58%; in assay [5] it was 2.97%; in assay [6] it was 2.81%.
On to `COc1ccc(-c2cc3c(C)nc(N)nc3n([C@H]3CC[C@H](OCCO)CC3)c2=O)cn1` (3000 nM), for which the normalised viability in assay [1] is 2.65%; in assay [2] it was 6.69%; in assay [3], 10.7%; in assay [4], 10.4%; in assay [5], 6.45%; in [6] it was 3.88%.
Consider `O=C(NC[C@H](O)CO)c1ccncc1Nc1ccc(I)cc1F` (3000 nM), for which the normalised viability amounted to 78.9% in [1]; 66.8% in assay [2]; 57.4% in assay [3]; 48% in [4]; 0.63% in [5]; 57.3% in assay [6].
As to `Nc1nc(=O)c2c([nH]1)NCC(CNc1ccc(C(=O)N[C@@H](CCC(=O)O)C(=O)O)cc1)N2C=O` (mixture of isomers) [Folinic acid] (297 nM), the normalised viability in assay [1] turned out to be 92.8%; in [2] it was 95.2%; in [3], 122%; in assay [4], 100%; in [5], 98.8%; in assay [6], 106%.
As for `O=C(Nc1c[nH]nc1-c1nc2ccc(CN3CCOCC3)cc2[nH]1)NC1CC1` [AT9283] (3000 nM), the normalised viability in [1] came out at 25.5%; in assay [2] it was 67.2%; in assay [3], 25.9%; in assay [4] it was 16.8%; in assay [5], 0.96%; in [6] it was 26.9%.
As for `COc1cc(CCc2cc(NC(=O)c3ccc(N4CC(C)NC(C)C4)cc3)n[nH]2)cc(OC)c1` (stereo not given) [AZD4547] (300 nM), the normalised viability in [1] turned out to be 96.4%; in assay [2], 105%; in assay [3], 117%; in [4] it was 95.5%; in [5] it was 97.8%; in assay [6] it was 56.1%.
Turning to `CCC/C=C/C=C/C(=O)O[C@H]1/C(=C/C(=O)OC)C[C@H]2C[C@H]([C@@H](C)O)OC(=O)C[C@H](O)C[C@@H]3C[C@H](OC(C)=O)C(C)(C)[C@](O)(C[C@@H]4C/C(=C/C(=O)OC)C[C@H](/C=C/C(C)(C)[C@]1(O)O2)O4)O3` [Bryostatin 1] (30 nM), the normalised viability was 95.3% in assay [1]; 110% in assay [2]; 100% in assay [3]; 111% in [4]; 65% in assay [5]; 96.6% in assay [6].
`Cc1c(CN2CCN(C(=O)[C@H](C)O)CC2)sc2c(N3CCOCC3)nc(-c3cnc(N)nc3)nc12` [GDC-0980] (300 nM): the normalised viability in assay [7] was determined as 38.7%; in assay [8] it was 52.1%; in [9], 29.7%; in [10], 62%; in assay [11], 68.3%; in assay [12], 18.3%.
In the case of `Nc1cccc2c1CN(C1CCC(=O)NC1=O)C2=O` (stereo not given) [Lenalidomide] (300 nM), the normalised viability was 107% and 103% in assay [7]; 92% and 96.1% in assay [8]; 66.2% and 69.3% in [9]; 87.3% and 90.2% in assay [10]; 103% and 86.6% in assay [11]; 97.7% and 101% in assay [12].
With `C[C@]12O[C@H](C[C@]1(O)CO)n1c3ccccc3c3c4c(c5c6ccccc6n2c5c31)CNC4=O` [Lestaurtinib] (30 nM), the normalised viability amounted to 111% in [7]; 107% in [8]; 84.5% in assay [9]; 114% in assay [10]; 91.3% in assay [11]; 105% in assay [12].
With `O=C1c2c(O)ccc(O)c2C(=O)c2c(NCCNCCO)ccc(NCCNCCO)c21` [Mitoxantrone] (30 nM), the normalised viability in assay [7] was 42.9%; in assay [8] it was 56.1%; in assay [9] it was 63.9%; in assay [10] it was 73.1%; in [11], 21.7%; in [12], 98%.
For `Nc1ccccc1NC(=O)c1ccc(CNc2nccc(-c3cccnc3)n2)cc1` [Mocetinostat] (300 nM), the normalised viability was 92.9% in assay [7]; 87.5% in assay [8]; 57.8% in assay [9]; 85.8% in [10]; 81.9% in [11]; 69% in assay [12].
Consider `Cc1ccc(Nc2nccc(N(C)c3ccc4c(C)n(C)nc4c3)n2)cc1S(N)(=O)=O` [Pazopanib] (300 nM), for which the normalised viability in [7] was determined as 95.6%; in assay [8] it was 85.7%; in assay [9], 64%; in assay [10], 96.1%; in [11] it was 102%; in [12], 88.4%.
`O=C(CCBr)N1CCN(C(=O)CCBr)CC1` [Pipobroman] (300 nM): the normalised viability in assay [7] was 106%; in assay [8], 107%; in assay [9], 87.1%; in assay [10], 101%; in assay [11], 110%; in assay [12] it was 113%.
With `c1cc(CN2CCCNCCNCCCNCC2)ccc1CN1CCCNCCNCCCNCC1` [Plerixafor] (75 nM), the normalised viability in assay [7] turned out to be 103%; in assay [8], 85.9%; in assay [9], 84%; in assay [10] it was 95%; in assay [11] it was 101%; in assay [12] it was 93.3%.
`C[C@]12C=CC(=O)C=C1CC[C@@H]1[C@@H]2[C@@H](O)C[C@@]2(C)[C@H]1CC[C@]2(O)C(=O)CO` [Prednisolone] (300 nM): the normalised viability in [7] worked out at 104%; in assay [8], 105%; in assay [9] it was 64.2%; in assay [10], 110%; in assay [11], 113%; in [12] it was 79.4%.
On to `CNC(=O)c1cc(Oc2ccc(NC(=O)Nc3ccc(Cl)c(C(F)(F)F)c3)cc2)ccn1` [Sorafenib] (30 nM), for which the normalised viability is 108% and 101% in [7]; 109% and 91.4% in [8]; 81.1% and 72.2% in assay [9]; 97.6% and 103% in [10]; 101% and 115% in assay [11]; 106% and 99.1% in assay [12].
As for `CCN(CC)CCNC(=O)c1c(C)[nH]c(/C=C2\C(=O)Nc3ccc(F)cc32)c1C` [Sunitinib] (30 nM), the normalised viability in assay [7] was 111% and 91.1%; in [8] it was 99.5% and 101%; in assay [9], 74.4% and 92.3%; in assay [10], 96.7% and 96.2%; in assay [11], 84.4% and 92.7%; in assay [12] it was 93.3% and 81.3%.
In the case of `CC[C@@]1(O)C(=O)OCc2c1cc1n(c2=O)Cc2cc3c(CN(C)C)c(O)ccc3nc2-1` [Topotecan] (30 nM), the normalised viability in assay [7] came to 94.8%; in assay [8] it was 71.3%; in assay [9], 82.3%; in assay [10], 95.9%; in [11] it was 56.8%; in [12], 90.6%.
